Consider 20 molecules from patent US10537558B2 (Bantam Pharmaceutical, LLC, priority 2015, dated 2020).

The first experiment relates to BJAB cells. The experiment in a line: BJAB cell proliferation (Cell Titer Glo). It counts as cell-based.
Conditions: not given
The method, boiled down: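 EC50 values come from non-linear regression of luminescence (Cell Titer Glo), expressed relative to untreated wells. BJAB cells were incubated roughly 72 h at 37 °C with serial compound dilutions carrying 0.1% final DMSO.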
Background: Cellular ATP, detected with luciferase, serves as a proxy for viable cell number.
On to `Cc1nn(-c2nc(-c3ccc(Cl)c(Cl)c3)c(SC(C)C)s2)c(C(=O)O)c1-c1cccc(F)c1` [Compound 151, 1-(4-(3,4-dichlorophenyl)-5-(isopropylthio)thiazol-2-yl)-4-(3-fluorophenyl)-3-methyl-1H-pyrazole-5-carboxylic Acid], for which the EC50 (usually the midpoint of the concentration-response curve) was “A, B”.

Still in this experiment, the particulars now being: Homo sapiens, read-out: EC50.
Regarding `Cc1nn(-c2nc(-c3ccc(Cl)c(Cl)c3)c(SC(C)C)s2)c(C(=O)N2CCC(CN)CC2)c1-c1cc(C(F)(F)F)cc(C(F)(F)F)c1` [Compound 136, (4-(aminomethyl)piperidin-1-yl)(4-(3,5-bis(trifluoromethyl)phenyl)-1-(4-(3,4-dichlorophenyl)-5-(isopropylthio)thiazol-2-yl)-3-methyl-1H-pyrazol-5-yl)methanone], the 50% effective concentration (EC50) was 1 to 5 µM.

Consider `Cc1nn(-c2nc(-c3ccc(Cl)c(Cl)c3)c(SC(C)C)s2)c(C(=O)N(C)CCN)c1-c1cc(C(F)(F)F)cc(C(F)(F)F)c1` [Compound 137, N-(2-aminoethyl)-4-(3,5-bis(trifluoromethyl)phenyl)-1-(4-(3,4-dichlorophenyl)-5-(isopropylthio)thiazol-2-yl)-N,3-dimethyl-1H-pyrazole-5-carboxamide], for which the EC50 fell in the range of 1 to 5 µM.

Turning to `Cc1nn(-c2nc(-c3ccc(Cl)c(Cl)c3)c(SC(C)C)s2)c(C(=O)N2CC(N)C2)c1-c1cc(C(F)(F)F)cc(C(F)(F)F)c1` [Compound 138, (3-aminoazetidin-1-yl)(4-(3,5-bis(trifluoromethyl)phenyl)-1-(4-(3,4-dichlorophenyl)-5-(isopropylthio)thiazol-2-yl)-3-methyl-1H-pyrazol-5-yl)methanone], the EC50 was 10 to 25 µM.

Take `Cc1nn(-c2nc(-c3ccc(Cl)c(Cl)c3)c(SC(C)C)s2)c(C(=O)N2CCOCC2)c1-c1cc(C(F)(F)F)cc(C(F)(F)F)c1` [Compound 139, (4-(3,5-bis(trifluoromethyl)phenyl)-1-(4-(3,4-dichlorophenyl)-5-(isopropylthio)thiazol-2-yl)-3-methyl-1H-pyrazol-5-yl)(morpholino)methanone]: the EC50 fell in the range of 10 to 25 µM.

With `Cc1nn(-c2nc(-c3ccc(Cl)c(Cl)c3)c(SC(C)C)s2)c(C(=O)N(C)C)c1-c1cc(C(F)(F)F)cc(C(F)(F)F)c1` [Compound 140, 4-(3,5-bis(trifluoromethyl)phenyl)-1-(4-(3,4-dichlorophenyl)-5-(isopropylthio)thiazol-2-yl)-N,N,3-trimethyl-1H-pyrazole-5-carboxamide], the EC50 is more than 40 µM.

Consider `Cc1nn(-c2nc(-c3ccc(Cl)c(Cl)c3)c(SC(C)C)s2)c(C(=O)N2CCC(CO)CC2)c1-c1cc(C(F)(F)F)cc(C(F)(F)F)c1` [Compound 141, (4-(3,5-bis(trifluoromethyl)phenyl)-1-(4-(3,4-dichlorophenyl)-5-(isopropylthio)thiazol-2-yl)-3-methyl-1H-pyrazol-5-yl)(4-(hydroxymethyl)piperidin-1-yl)methanone], for which the concentration giving a half-maximal response (EC50) was more than 40 µM.

Consider `Cc1nn(-c2nc(-c3ccc(Cl)c(Cl)c3)c(CC(C)C)s2)c(C(=O)O)c1-c1cnn(C)c1` [Compound 142, 1-(4-(3,4-dichlorophenyl)-5-isobutylthiazol-2-yl)-1′,3-dimethyl-1H,1′H-[4,4′-bipyrazole]-5-carboxylic Acid], for which the half-maximal effective concentration (EC50) is 1 to 5 µM.

In the case of `Cc1cc(C)cc(-c2c(C)nn(-c3nc(-c4ccc(Cl)c(Cl)c4)c(SC(C)C)s3)c2C(=O)O)c1` [Compound 143, 1-(4-(3,4-dichlorophenyl)-5-(isopropylthio)thiazol-2-yl)-4-(3,5-dimethylphenyl)-3-methyl-1H-pyrazole-5-carboxylic Acid], the EC50 was in the range of 1 to 5 µM.

Regarding `Cc1nn(-c2nc(-c3ccc(Cl)c(Cl)c3)c(SC(C)C)s2)c(C(=O)O)c1-c1cc(Cl)cc(Cl)c1` [Compound 144, 4-(3,5-dichlorophenyl)-1-(4-(3,4-dichlorophenyl)-5-(isopropylthio)thiazol-2-yl)-3-methyl-1H-pyrazole-5-carboxylic Acid], the EC50 was less than 1 µM.

Consider `COc1cc(Cl)cc(-c2c(C)nn(-c3nc(-c4ccc(Cl)c(Cl)c4)c(SC(C)C)s3)c2C(=O)O)c1` [Compound 145, 4-(3-chloro-5-methoxyphenyl)-1-(4-(3,4-dichlorophenyl)-5-(isopropylthio)thiazol-2-yl)-3-methyl-1H-pyrazole-5-carboxylic Acid], for which the EC50 fell in the range of 1 to 5 µM.

With `COc1cc(-c2c(C)nn(-c3nc(-c4ccc(Cl)c(Cl)c4)c(SC(C)C)s3)c2C(=O)O)cc(C(F)(F)F)c1` [Compound 146, 1-(4-(3,4-dichlorophenyl)-5-(isopropylthio)thiazol-2-yl)-4-(3-methoxy-5-(trifluoromethyl)phenyl)-3-methyl-1H-pyrazole-5-carboxylic Acid], the EC50 lay within 1 to 5 µM.

As for `Cc1cc(Cl)cc(-c2c(C)nn(-c3nc(-c4ccc(Cl)c(Cl)c4)c(SC(C)C)s3)c2C(=O)O)c1` [Compound 147, 4-(3-chloro-5-methylphenyl)-1-(4-(3,4-dichlorophenyl)-5-(isopropylthio)thiazol-2-yl)-3-methyl-1H-pyrazole-5-carboxylic Acid], the EC50 is less than 1 µM.

On to `Cc1nn(-c2nc(-c3ccc(Cl)c(Cl)c3)c(SC(C)C)s2)c(C(=O)NS(C)(=O)=O)c1-c1cc(C(F)(F)F)cc(C(F)(F)F)c1` [Compound 148, 4-(3,5-bis(trifluoromethyl)phenyl)-1-(4-(3,4-dichlorophenyl)-5-(isopropylthio)thiazol-2-yl)-3-methyl-N-(methylsulfonyl)-1H-pyrazole-5-carboxamide], for which the EC50 was more than 40 µM.

Consider `Cc1nn(-c2nc(-c3ccc(Cl)c(Cl)c3)c(SC(C)C)s2)c(C(=O)O)c1-c1cnc2ccccn12` [Compound 149, 1-(4-(3,4-dichlorophenyl)-5-(isopropylthio)thiazol-2-yl)-4-(imidazo[1,2-a]pyridin-3-yl)-3-methyl-1H-pyrazole-5-carboxylic acid], for which the concentration for a half-maximal effect (EC50) fell in the range of 5 to 10 µM.

As to `Cc1nn(-c2nc(-c3ccc(Cl)c(Cl)c3)c(SC(C)C)s2)c(C(=O)O)c1-c1cc(O)cc(F)c1` [Compound 152, 1-(4-(3,4-dichlorophenyl)-5-(isopropylthio)thiazol-2-yl)-4-(3-fluoro-5-hydroxyphenyl)-3-methyl-1H-pyrazole-5-carboxylic Acid], the 50% effective concentration (EC50) was 5 to 10 µM.

As to `Cc1cc(N)cc(-c2c(C)nn(-c3nc(-c4ccc(Cl)c(Cl)c4)c(SC(C)C)s3)c2C(=O)O)c1` [Compound 153, 4-(3-amino-5-methylphenyl)-1-(4-(3,4-dichlorophenyl)-5-(isopropylthio)thiazol-2-yl)-3-methyl-1H-pyrazole-5-carboxylic acid], the EC50 is more than 25 µM.

As for `Cc1nn(-c2nc(-c3ccc(Cl)c(Cl)c3)c(SC(C)C)s2)c(C(=O)O)c1-c1cc(O)cc(Cl)c1` [Compound 154, 4-(3-chloro-5-hydroxyphenyl)-1-(4-(3,4-dichlorophenyl)-5-(isopropylthio)thiazol-2-yl)-3-methyl-1H-pyrazole-5-carboxylic Acid], the concentration giving a half-maximal response (EC50) lay within 10 to 25 µM.

In the case of `Cc1nn(-c2nc(-c3ccc(Cl)c(Cl)c3)c(SC(C)C)s2)c(C(=O)O)c1-c1cccc2ccn(C)c12` [Compound 155, 1-(4-(3,4-dichlorophenyl)-5-(isopropylthio)thiazol-2-yl)-3-methyl-4-(1-methyl-1H-indol-7-yl)-1H-pyrazole-5-carboxylic Acid], the EC50 was in the range of 5 to 10 µM.

Regarding `CC(C)Sc1sc(-n2cccn2)nc1-c1ccc(Cl)c(Cl)c1` [Compound 156, 4-(3,4-dichlorophenyl)-5-(isopropylthio)-2-(1H-pyrazol-1-yl)thiazole], the concentration giving a half-maximal response (EC50) is more than 25 µM.
